# Values joined by “and” are separate entries in the source; they are usually repeats but may differ in a detail not shown here. Equal values may be shown once. Where a name gives a salt, the structure may show the parent alone.
# System: self-administration (addictive potential)
# Test: I.v. self-administration of CP612, between-session progressive ratio and demand curve
# Method: We tested the addictive potential of CP612 by examining the extent to which rats are willing to work to obtain CP612. Rats were initially trained to self-administer either saline, morphine (500 μg/kg/i.v. infusion), or 1 of 3 different doses of CP612 (75, 150, or 300 μg/kg/i.v. infusion) for 4 days at fixed ratio 1 (FR1, where 1 nose poke delivers 1 infusion).
# During the second phase, the ratio to obtain an infusion increased geometrically every other day (FR1, FR3, FR6, FR12, FR24, FR48, and FR96).
# Data (number of self-infusions) were also fitted in an economic-demand curve, which provides an estimate of the motivation to obtain drugs and their addictive potential ([20]). We measured elasticity (α), which is the relative change in consumption as a function of price (i.e., ratio of nose pokes required to obtain an infusion). Behavior is considered “inelastic” when consumption is insensitive to price and “elastic” when consumption is sensitive to price. We also measured Pmax, which is the price at which intake switches from inelastic to elastic. […] (Figure 8B).
# Rats not immediately anesthetized were eliminated from the study.
# Following this initial acquisition phase at FR1, the ratio to obtain the drug was increased geometrically every other day: FR3 (3 nose pokes are required to obtain 1 infusion of morphine), FR6, FR12, FR24, FR48, and FR96. This allows for analysis of drug consumption as a function of “price” using demand curves for behavioral economics, which can estimate the motivation to obtain drugs and their “addictive potential” ([20]). For this, data from each rat were fitted to the equation log Q = log Q0 + k (e ^–α(Q0 ^C) – 1), where Q represents consumption (number of self-infusions), and Q0 represents the level of consumption at the lowest price. C represents price for the drug (i.e., the ratio), and k is set to a constant accounting for the estimated range of consumption in logarithmic units (k = 4 in these studies). The symbol α is the relative change in consumption across changes in price (ratio). Behavior is considered “inelastic” when consumption is insensitive to price (i.e., the curve is flat, and consumption is maintained despite increases in price), and it switches to “elastic” when consumption is sensitive to price (i.e., when the curve is steep and consumption declines with increases in price). […] We also compared groups for their average intake in the consumption-price curves by measuring α (elasticity) and Pmax.
# [1] = individual rat values, drug self-administered
compound,measurement,setting,value
"CN1CC[C@]23c4c5ccc(O)c4O[C@H]2[C@@H](O)C=C[C@H]3[C@H]1C5 [Morphine, Morphine sulfate, reference compound]",Responding in the active hole when the ratio to obtain an infusion increased,"FR1 to FR96, CP612 75, 150, 300 or morphine 500 μg/kg/i.v. infusion",increased responding
same,Number of self-infusions when the ratio to obtain an infusion increased,"FR1 to FR96, compared with saline",did not significantly decrease
same,D1 AH (FR1),[1],7 and 9 and 15
same,D1 AH (FR3),[1],23 and 18 and 20
same,D1 AH (FR6),[1],51 and 24 and 47
same,D1 AH (FR12),[1],97 and 70 and 72
same,D1 AH (FR24),[1],143 and 139 and 168
same,D1 AH (FR48),[1],113 and 164 and 127
same,D1 AH (FR96),[1],127 and 137 and 133
same,D1 IH (FR1),[1],1 and 12 and 2
same,D1 IH (FR3),[1],9 and 12 and 5
same,D1 IH (FR6),[1],0 and 9 and 7
same,D1 IH (FR12),[1],2 and 15 and 20
same,D1 IH (FR24),[1],7 and 9 and 20
same,D1 IH (FR48),[1],13 and 28
same,D1 IH (FR96),[1],7 and 33
same,D1 Inf (FR1),[1],6 and 7 and 10
same,D1 Inf (FR3),[1],7 and 5 and 6
same,D1 Inf (FR6),[1],8 and 4 and 7
same,D1 Inf (FR12),[1],8 and 5 and 6
same,D1 Inf (FR24),[1],5 and 6
same,D1 Inf (FR48),[1],2 and 3
same,D1 Inf (FR96),[1],1
same,D1 Latency (FR1),[1],1.5 and 1.4 and 2.3
same,D1 Latency (FR3),[1],0.38 and 0.7 and 0.267
same,D1 Latency (FR6),[1],0.2 and 0.317 and 0.6
same,D1 Latency (FR12),[1],1.6 and 0.6 and 1.7
same,D1 Latency (FR24),[1],1.3 and 0.5 and 0.26
same,D1 Latency (FR48),[1],0.367 and 0.26 and 1.1
same,D1 Latency (FR96),[1],1.0 and 1.1 and 0.7
same,D2 AH (FR1),[1],5 and 7 and 12
same,D2 AH (FR3),[1],25 and 23 and 26
same,D2 AH (FR6),[1],59 and 60 and 46
same,D2 AH (FR12),[1],118 and 94 and 104
same,D2 AH (FR24),[1],143 and 151 and 176
same,D2 AH (FR48),[1],163 and 134 and 158
same,D2 AH (FR96),[1],106 and 145 and 179
same,D2 IH (FR1),[1],8 and 6 and 2
same,D2 IH (FR3),[1],1 and 11 and 13
same,D2 IH (FR6),[1],9 and 8
same,D2 IH (FR12),[1],8 and 7
same,D2 IH (FR24),[1],11 and 7 and 20
same,D2 IH (FR48),[1],19 and 11
same,D2 IH (FR96),[1],6 and 16
same,D2 Inf (FR1),[1],5 and 6 and 9
same,D2 Inf (FR3),[1],8 and 6
same,D2 Inf (FR6),[1],8 and 9 and 7
same,D2 Inf (FR12),[1],9 and 6 and 7
same,D2 Inf (FR24),[1],5 and 6 and 7
same,D2 Inf (FR48),[1],3 and 2
same,D2 Inf (FR96),[1],1
same,D2 Latency (FR1),[1],0.458 and 1.3 and 0.3
same,D2 Latency (FR3),[1],0.25 and 0.473 and 0.4
same,D2 Latency (FR6),[1],3.2 and 1.4 and 0.647
same,D2 Latency (FR12),[1],0.127 and 0.277 and 0.753
same,D2 Latency (FR24),[1],3.0 and 1.6
same,D2 Latency (FR48),[1],0.218 and 0.3 and 0.9
same,D2 Latency (FR96),[1],0.5 and 0.28 and 1.1
same,D3 AH (FR1),[1],8 and 11 and 13
same,D3 IH (FR1),[1],3 and 5 and 0
same,D3 Inf (FR1),[1],6 and 7 and 9
same,D3 Latency (FR1),[1],0.6 and 2.1 and 0.053
same,D4 AH (FR1),[1],10 and 12 and 11
same,D4 IH (FR1),[1],0 and 4 and 2
same,D4 Inf (FR1),[1],7 and 9
same,D4 Latency (FR1),[1],0.13 and 0.6 and 0.632
same,last AH (FR1),[1],7 and 8 and 14
same,last IH (FR1),[1],3 and 2 and 4
same,last Inf (FR1),[1],6
same,last Latency (FR1),[1],0.34 and 0.452 and 0.9
same,last-1 AH (FR1),[1],10 and 12 and 11
same,last-1 IH (FR1),[1],0 and 4 and 2
same,last-1 Inf (FR1),[1],7 and 9
same,last-1 Latency (FR1),[1],0.13 and 0.6 and 0.632
same,last-2 AH (FR1),[1],8 and 11 and 13
same,last-2 IH (FR1),[1],3 and 5 and 0
same,last-2 Inf (FR1),[1],6 and 7 and 9
same,last-2 Latency (FR1),[1],0.6 and 2.1 and 0.053
same,last-3 AH (FR1),[1],5 and 7 and 12
same,last-3 IH (FR1),[1],8 and 6 and 2
same,last-3 Inf (FR1),[1],5 and 6 and 9
same,last-3 Latency (FR1),[1],0.458 and 1.3 and 0.3
same,Pmax (price at which intake switches from inelastic to elastic),morphine 500 μg/kg/i.v. infusion,50.1
same,AVG AH (FR3),"morphine, individual rats",43.5 and 29.0 and 31.0 and 18.0 and 18.5 and 24.0
same,AVG AH (FR6),"morphine, individual rats",43.5 and 53.5 and 45.5 and 38.5 and 31.0 and 21.0
same,AVG AH (FR12),"morphine, individual rats",62.0 and 88.0 and 64.5 and 104.0 and 39.0 and 41.5
same,AVG AH (FR24),"morphine, individual rats",164.5 and 149.5 and 79.5 and 187.0 and 122.5 and 61.0
same,AVG AH (FR48),"morphine, individual rats",232.5 and 252.5 and 73.5 and 255.0 and 135.0 and 63.0
same,AVG AH (FR96),"morphine, individual rats",203.5 and 351.0 and 57.0 and 198.0 and 210.5 and 36.0
same,AVG IH (FR1_D1 to D4),"morphine, individual rats",10.3 and 8.8 and 13.3 and 5.3 and 14.8 and 7.0
same,AVG IH (FR1_Last 2 FR1 days),"morphine, individual rats",3.5 and 3.0 and 5.5 and 5.0 and 6.5 and 9.0
same,AVG IH (FR1_Last 4 FR1 days),"morphine, individual rats",10.8 and 3.5 and 9.5 and 4.8 and 11.0 and 7.5
same,AVG IH (FR3),"morphine, individual rats",10.0 and 7.5 and 8.5 and 8.0 and 15.0 and 9.0
same,AVG IH (FR6),"morphine, individual rats",6.5 and 7.0 and 9.0 and 7.5 and 13.5 and 11.0
same,AVG IH (FR12),"morphine, individual rats",11.0 and 9.5 and 19.0 and 5.0 and 6.0 and 4.0
same,AVG IH (FR24),"morphine, individual rats",11.0 and 10.0 and 15.0 and 7.5 and 8.5
same,AVG IH (FR48),"morphine, individual rats",8.5 and 13.5 and 12.0 and 18.0 and 9.5 and 13.0
same,AVG IH (FR96),"morphine, individual rats",8.5 and 18.5 and 13.5 and 14.5 and 26.0
same,AVG Inf (FR1_D1 to D4),"morphine, individual rats",10.8 and 9.3 and 8.0 and 12.0 and 9.5 and 10.0
same,AVG Inf (FR1_Last 2 FR1 days),"morphine, individual rats",14.0 and 10.0 and 11.0 and 9.0 and 7.5
same,AVG Inf (FR1_Last 4 FR1 days),"morphine, individual rats",12.0 and 10.0 and 9.0 and 13.3 and 9.5 and 9.3
same,AVG Inf (FR3),"morphine, individual rats",10.5 and 8.5 and 9.5 and 5.0 and 4.5
same,AVG Inf (FR6),"morphine, individual rats",7.0 and 7.5 and 6.0 and 4.0 and 3.0
same,AVG Inf (FR12),"morphine, individual rats",5.0 and 6.0 and 4.5 and 8.0 and 3.0
same,AVG Inf (FR24),"morphine, individual rats",6.0 and 5.5 and 3.0 and 7.5 and 4.0 and 2.0
same,AVG Inf (FR48),"morphine, individual rats",4.5 and 5.0 and 1.0 and 2.0
same,AVG Inf (FR96),"morphine, individual rats",1.5 and 3.0 and 0.0
same,AVG Latency (FR1_D1 to D4),"morphine, individual rats",2.4 and 4.0 and 9.8 and 1.3 and 2.0 and 1.1
same,AVG Latency (FR1_Last 2 FR1 days),"morphine, individual rats",0.271 and 0.4 and 3.0 and 0.18 and 0.74 and 1.1
same,AVG Latency (FR1_Last 4 FR1 days),"morphine, individual rats",0.3 and 0.277 and 3.8 and 0.6 and 1.1

# Reference: PMC12016938, “A small molecule PKCε inhibitor reduces hyperalgesia induced by paclitaxel or opioid withdrawal” (JCI Insight, 2025)
